Laboratory results: paper PMC6437697 (Journal of Medicinal Chemistry, 2019)

Columns and labels:
Experiment in all cases: KINOMEscan
Assay type in all cases: binding
Conditions in all cases: read-out: % control activity remaining
EPHA2 = target: T1, EPHA2 (Homo sapiens, UniProt P29317)
T1 construct: purchased Eurofins DiscoverX KINOMEscan

MYO3A = target: T2, MYO3A (Homo sapiens, UniProt Q8NEV4)
T2 construct: purchased Eurofins DiscoverX KINOMEscan

NEK1 = target: T3, NEK1 (Homo sapiens, UniProt Q96PY6)
T3 construct: purchased Eurofins DiscoverX KINOMEscan
T3 sequence (Q96PY6 1-1258): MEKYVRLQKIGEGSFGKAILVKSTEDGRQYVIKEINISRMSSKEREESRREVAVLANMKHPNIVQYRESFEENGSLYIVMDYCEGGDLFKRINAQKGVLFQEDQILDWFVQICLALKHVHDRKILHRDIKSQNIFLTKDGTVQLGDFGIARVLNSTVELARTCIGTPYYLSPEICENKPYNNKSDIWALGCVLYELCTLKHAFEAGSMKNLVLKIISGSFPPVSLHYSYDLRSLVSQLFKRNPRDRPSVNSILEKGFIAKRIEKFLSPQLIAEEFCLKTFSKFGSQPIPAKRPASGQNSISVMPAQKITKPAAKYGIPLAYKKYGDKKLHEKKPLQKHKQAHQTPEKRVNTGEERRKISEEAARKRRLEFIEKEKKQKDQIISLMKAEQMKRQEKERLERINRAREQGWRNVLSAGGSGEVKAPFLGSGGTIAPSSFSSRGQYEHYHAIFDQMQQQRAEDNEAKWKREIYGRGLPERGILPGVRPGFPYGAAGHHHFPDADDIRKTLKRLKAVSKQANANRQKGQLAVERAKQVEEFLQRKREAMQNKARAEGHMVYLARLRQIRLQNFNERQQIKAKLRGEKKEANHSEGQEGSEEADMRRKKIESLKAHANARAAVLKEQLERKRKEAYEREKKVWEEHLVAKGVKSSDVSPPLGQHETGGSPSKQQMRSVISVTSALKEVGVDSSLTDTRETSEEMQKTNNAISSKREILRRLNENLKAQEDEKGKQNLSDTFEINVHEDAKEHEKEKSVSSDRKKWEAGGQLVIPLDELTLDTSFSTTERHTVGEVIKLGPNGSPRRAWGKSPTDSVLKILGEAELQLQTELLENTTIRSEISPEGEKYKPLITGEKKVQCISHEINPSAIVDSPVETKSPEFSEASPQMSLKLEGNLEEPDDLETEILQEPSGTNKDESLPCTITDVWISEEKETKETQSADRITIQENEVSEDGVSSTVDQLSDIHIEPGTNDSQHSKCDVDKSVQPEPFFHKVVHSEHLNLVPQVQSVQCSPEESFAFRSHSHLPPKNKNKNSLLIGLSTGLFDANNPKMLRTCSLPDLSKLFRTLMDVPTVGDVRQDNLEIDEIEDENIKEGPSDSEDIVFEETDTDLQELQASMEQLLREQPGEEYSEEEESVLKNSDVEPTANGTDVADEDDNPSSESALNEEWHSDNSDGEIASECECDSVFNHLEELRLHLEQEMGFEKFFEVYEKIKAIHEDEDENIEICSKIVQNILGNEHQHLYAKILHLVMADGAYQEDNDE

SYK = target: T4, SYK (Homo sapiens, UniProt P43405)
T4 construct: purchased Eurofins DiscoverX KINOMEscan

[1] = target: T5, RSK3(Kin.Dom.2-C-terminal) (Homo sapiens, UniProt Q15349)
T5 construct: RSK3(Kin.Dom.2-C-terminal); purchased Eurofins DiscoverX KINOMEscan
T5 sequence (Q15349 415-672 limits assumed): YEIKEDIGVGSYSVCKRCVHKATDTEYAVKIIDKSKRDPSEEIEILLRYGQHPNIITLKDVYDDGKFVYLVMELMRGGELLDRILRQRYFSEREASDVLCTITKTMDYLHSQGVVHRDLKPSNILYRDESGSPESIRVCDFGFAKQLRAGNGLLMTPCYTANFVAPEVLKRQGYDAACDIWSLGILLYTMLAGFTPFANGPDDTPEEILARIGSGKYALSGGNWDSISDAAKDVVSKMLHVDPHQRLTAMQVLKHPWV

CSNK1A1 = target: T6, CSNK1A1 (Homo sapiens, UniProt P48729)
T6 construct: purchased Eurofins DiscoverX KINOMEscan
T6 sequence (P48729 whole entry): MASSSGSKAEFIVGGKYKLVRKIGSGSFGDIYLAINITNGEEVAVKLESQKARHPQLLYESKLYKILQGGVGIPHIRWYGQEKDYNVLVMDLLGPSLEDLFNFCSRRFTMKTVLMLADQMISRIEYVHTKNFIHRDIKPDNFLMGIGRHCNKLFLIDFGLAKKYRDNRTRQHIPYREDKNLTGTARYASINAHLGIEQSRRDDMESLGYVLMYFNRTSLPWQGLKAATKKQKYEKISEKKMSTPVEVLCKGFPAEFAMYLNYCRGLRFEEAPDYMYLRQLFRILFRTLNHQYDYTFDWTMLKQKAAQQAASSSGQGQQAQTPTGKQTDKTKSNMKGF

PIK3C2G = target: T7, PIK3C2G (Homo sapiens, UniProt O75747)
T7 construct: purchased Eurofins DiscoverX KINOMEscan
T7 sequence (O75747 1-1486): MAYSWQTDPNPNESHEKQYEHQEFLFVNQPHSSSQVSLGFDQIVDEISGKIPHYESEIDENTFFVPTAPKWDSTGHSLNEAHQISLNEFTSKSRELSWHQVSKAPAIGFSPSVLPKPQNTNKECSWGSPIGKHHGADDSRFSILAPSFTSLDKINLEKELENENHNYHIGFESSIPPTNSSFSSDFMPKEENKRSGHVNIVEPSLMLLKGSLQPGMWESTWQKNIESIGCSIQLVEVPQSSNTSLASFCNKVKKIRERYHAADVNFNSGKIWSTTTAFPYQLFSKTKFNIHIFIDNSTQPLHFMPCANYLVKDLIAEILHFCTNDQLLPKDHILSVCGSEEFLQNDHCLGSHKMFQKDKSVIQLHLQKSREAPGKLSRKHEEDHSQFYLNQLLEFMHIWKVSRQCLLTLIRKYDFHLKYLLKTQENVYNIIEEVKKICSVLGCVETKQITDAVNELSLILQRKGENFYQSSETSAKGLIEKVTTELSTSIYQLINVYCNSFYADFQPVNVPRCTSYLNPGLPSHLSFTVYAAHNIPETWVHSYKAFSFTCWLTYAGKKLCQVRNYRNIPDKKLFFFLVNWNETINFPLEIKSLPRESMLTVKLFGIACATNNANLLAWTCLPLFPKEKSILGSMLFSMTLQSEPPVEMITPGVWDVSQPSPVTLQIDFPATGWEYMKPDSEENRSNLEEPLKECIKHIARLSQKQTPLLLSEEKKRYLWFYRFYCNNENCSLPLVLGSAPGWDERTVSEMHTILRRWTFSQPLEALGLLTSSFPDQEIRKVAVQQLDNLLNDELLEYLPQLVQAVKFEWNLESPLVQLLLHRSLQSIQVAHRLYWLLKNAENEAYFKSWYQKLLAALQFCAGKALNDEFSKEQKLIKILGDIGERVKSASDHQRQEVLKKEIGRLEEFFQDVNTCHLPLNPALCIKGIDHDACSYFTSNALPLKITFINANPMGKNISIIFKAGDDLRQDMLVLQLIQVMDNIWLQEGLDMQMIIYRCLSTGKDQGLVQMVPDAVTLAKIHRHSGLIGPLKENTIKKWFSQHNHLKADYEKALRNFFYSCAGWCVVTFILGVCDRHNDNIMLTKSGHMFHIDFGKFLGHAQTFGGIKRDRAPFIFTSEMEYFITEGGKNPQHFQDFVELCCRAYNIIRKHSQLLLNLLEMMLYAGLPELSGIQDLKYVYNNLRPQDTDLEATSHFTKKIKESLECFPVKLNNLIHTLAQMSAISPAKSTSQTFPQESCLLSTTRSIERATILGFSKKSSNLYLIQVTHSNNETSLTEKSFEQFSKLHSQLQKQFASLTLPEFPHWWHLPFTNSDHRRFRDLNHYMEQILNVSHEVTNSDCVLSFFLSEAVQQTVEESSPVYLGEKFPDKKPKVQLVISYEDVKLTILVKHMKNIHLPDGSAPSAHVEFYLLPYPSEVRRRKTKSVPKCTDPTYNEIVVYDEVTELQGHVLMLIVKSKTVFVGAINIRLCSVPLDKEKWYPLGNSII

T2 sequence (Q8NEV4 whole entry): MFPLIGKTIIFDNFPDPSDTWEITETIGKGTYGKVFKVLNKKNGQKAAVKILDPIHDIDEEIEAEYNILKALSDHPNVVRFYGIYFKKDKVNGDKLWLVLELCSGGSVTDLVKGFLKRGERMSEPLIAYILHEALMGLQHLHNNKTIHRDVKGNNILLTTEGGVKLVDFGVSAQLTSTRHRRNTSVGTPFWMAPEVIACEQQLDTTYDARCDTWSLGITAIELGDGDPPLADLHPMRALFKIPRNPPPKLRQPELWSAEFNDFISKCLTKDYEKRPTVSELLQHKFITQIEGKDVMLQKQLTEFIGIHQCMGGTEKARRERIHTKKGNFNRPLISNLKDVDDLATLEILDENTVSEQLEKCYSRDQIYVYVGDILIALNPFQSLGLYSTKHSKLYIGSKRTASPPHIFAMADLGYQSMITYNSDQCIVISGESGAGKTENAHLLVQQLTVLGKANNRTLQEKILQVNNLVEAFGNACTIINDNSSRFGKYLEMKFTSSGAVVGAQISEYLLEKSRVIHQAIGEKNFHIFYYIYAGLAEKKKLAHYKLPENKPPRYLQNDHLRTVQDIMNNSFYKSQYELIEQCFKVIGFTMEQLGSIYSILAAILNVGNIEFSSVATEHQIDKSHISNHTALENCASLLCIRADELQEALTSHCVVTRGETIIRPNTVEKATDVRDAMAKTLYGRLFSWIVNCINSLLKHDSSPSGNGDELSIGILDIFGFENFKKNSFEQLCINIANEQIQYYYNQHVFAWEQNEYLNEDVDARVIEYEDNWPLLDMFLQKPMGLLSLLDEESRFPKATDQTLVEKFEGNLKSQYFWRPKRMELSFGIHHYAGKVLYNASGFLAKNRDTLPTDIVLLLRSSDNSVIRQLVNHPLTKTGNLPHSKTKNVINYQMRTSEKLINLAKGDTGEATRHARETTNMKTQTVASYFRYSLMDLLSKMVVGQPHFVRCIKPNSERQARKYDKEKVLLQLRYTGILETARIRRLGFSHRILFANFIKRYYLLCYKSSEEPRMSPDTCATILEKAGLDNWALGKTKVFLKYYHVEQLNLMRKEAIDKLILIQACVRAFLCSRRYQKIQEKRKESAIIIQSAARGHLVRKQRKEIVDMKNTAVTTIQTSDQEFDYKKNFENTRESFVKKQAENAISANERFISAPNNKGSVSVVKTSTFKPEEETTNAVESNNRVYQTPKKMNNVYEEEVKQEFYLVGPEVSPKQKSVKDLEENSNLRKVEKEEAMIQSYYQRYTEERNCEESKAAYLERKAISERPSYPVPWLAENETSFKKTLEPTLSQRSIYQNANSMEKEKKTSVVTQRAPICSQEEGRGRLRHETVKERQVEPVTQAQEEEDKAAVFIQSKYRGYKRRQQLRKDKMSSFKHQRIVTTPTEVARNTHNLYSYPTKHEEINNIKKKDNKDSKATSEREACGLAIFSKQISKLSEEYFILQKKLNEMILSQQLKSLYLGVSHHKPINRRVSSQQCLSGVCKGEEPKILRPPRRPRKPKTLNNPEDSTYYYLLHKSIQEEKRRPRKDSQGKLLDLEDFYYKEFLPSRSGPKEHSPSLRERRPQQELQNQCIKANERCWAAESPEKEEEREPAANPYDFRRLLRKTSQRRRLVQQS
T1 sequence (P29317 24-976): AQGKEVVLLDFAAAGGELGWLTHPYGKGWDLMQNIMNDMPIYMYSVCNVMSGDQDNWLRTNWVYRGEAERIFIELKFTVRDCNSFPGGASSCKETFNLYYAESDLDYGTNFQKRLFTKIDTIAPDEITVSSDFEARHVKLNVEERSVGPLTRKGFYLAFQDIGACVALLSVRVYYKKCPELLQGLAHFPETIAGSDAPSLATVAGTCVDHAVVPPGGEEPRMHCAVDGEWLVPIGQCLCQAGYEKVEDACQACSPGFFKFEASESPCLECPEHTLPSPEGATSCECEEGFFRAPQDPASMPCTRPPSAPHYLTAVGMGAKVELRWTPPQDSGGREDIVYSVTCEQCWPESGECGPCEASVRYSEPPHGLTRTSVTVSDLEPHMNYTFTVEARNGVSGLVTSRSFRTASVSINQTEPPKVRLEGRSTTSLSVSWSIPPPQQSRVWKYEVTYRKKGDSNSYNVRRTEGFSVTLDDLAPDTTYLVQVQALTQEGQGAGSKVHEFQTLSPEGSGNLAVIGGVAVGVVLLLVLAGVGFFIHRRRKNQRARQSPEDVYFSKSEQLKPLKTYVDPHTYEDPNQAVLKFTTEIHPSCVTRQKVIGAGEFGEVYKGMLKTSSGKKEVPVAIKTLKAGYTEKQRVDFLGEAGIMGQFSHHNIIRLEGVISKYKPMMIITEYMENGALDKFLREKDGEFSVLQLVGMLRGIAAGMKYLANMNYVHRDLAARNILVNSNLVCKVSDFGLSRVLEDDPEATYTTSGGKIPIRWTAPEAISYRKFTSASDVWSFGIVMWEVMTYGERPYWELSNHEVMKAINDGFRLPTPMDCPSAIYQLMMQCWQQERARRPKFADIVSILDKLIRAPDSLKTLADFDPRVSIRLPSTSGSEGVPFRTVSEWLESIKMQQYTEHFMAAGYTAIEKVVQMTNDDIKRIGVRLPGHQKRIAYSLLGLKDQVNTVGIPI

Compound | remaining binding at 1 µM (EPHA2) | remaining binding at 1 µM (MYO3A) | remaining binding at 1 µM (NEK1) | remaining binding at 1 µM (SYK) | remaining binding at 1 µM [1] | remaining binding at 1 µM (CSNK1A1) | remaining binding at 1 µM (PIK3C2G)
Clc1cc(NCC2CC2)c2ncc(-c3ccc4[nH]ncc4c3)n2n1 [compound 2, 6-Chloro-N-(cyclopropylmethyl)-3-(1H-indazol-5-yl)imidazo[1,2-b]pyridazin-8-amine] | 94% | 96% | 84% | 97% | 100% | 100% | 91%
O=C(CN1CCOCC1)N[C@H]1CC[C@H](Nc2cc(Cl)nn3c(-c4ccc5[nH]ncc5c4)cnc23)CC1 [compound 26] | 99% | 96% | 92% | 100% | 94% | 58% | 80%
CN1CCC(CNc2cc(Cl)nn3c(-c4cc5nc(Nc6ccccc6)[nH]c5cc4F)cnc23)CC1 [compound 31, 6-Chloro-3-(6-fluoro-2-(phenylamino)-1H-benzo[d]imidazol-5-yl)-N-((1-methylpiperidin-4-yl)methyl)imidazo[1,2-b]pyridazin-8-amine] | 94% | 97% | 96% | 92% | 80% | 97% | 82%
